From paper PMC11558128 (Advanced Science, 2024)
Positions of bridges follow the written chain, without caps; N, C: chain ends. Residues, ends and D or L forms follow the SMILES beside them.

Tested on: ICR mice
Test: Small intestinal propulsion test
Format: in vivo, mouse
Conditions: 2 mg kg-1 i.p.; vs saline; n = 4, p = 0.3429
Procedure: Small Intestinal Propulsion Test: ICR mice (weight 18–20 g, 6–8 weeks, both sex) were subjected to a 24‐hour fasting period to ensure gastrointestinal emptying. Subsequently, the mice were randomly assigned to one of two groups: Saline (2 males and 2 females) and 2 mg kg^−1 mGpTx1‐SA (2 males and 2 females). All groups received intraperitoneal administration of their respective substances and were allowed 20 minutes for the drugs to take effect. Following drug administration, each mouse received a pre‐prepared nutritive semi‐solid paste (10 g of sodium carboxymethylcellulose, 16 g of milk powder, 8 g of sucrose, 8 g of starch, and 5 g of activated charcoal, stirred well in 250 mL of ddH2O) via gavage (0.5 mL per 20 g). After 20 min, the mice were euthanized, and their small intestines were carefully removed. The distance from the pylorus to the ileum was measured along the full length of the small intestine. Additionally, the distance from the pylorus to the front of the black semi‐solid paste was measured. Small intestinal propulsion rate (%) = length of carbon paste propulsion (cm) × 100% / total length of small intestine (cm).

CC[C@H](C)[C@@H]1NC(=O)[C@@H]2CSSC[C@@H]3NC(=O)[C@H](C(C)C)NC(=O)[C@H](CC(C)C)NC(=O)[C@H](CC(N)=O)NC(=O)[C@@H]4CCCN4C(=O)[C@H](CCCNC(=N)N)NC(=O)[C@H](CSSC[C@H](NC(=O)[C@@H](N)CC(=O)O)C(=O)N[C@@H](CC(C)C)C(=O)NCC(=O)N[C@@H](C)C(=O)N[C@@H](Cc4ccccc4)C(=O)N[C@@H](CCCNC(=N)N)C(=O)N[C@@H](CCCCN)C(=O)N2)NC(=O)[C@H](CSSC[C@@H](C(=O)N[C@@H](CCCCN)C(=O)N[C@@H](Cc2ccc(O)cc2)C(=O)N[C@H](C(=O)N[C@@H](Cc2ccccc2)C(N)=O)C(C)C)NC(=O)[C@H](Cc2c[nH]c4ccccc24)NC(=O)[C@H](CCCNC(=N)N)NC(=O)[C@H](Cc2c[nH]cn2)NC(=O)[C@H](C)NC(=O)[C@H](CO)NC(=O)[C@H](CO)NC3=O)NC(=O)[C@H](CCCCN)NC(=O)[C@H](CC(=O)O)NC(=O)[C@H](CC(N)=O)NC(=O)[C@H](CC(=O)O)NC(=O)[C@@H]2CCCN2C1=O [mGpTx1-SA] (H-DCLGAFRKCIPDNDKCCRPNLVCSSAHRWCKYVF-NH2; disulfide 2-17, 9-23, 16-30)
small intestinal propulsion: no effect
